{
  "source": "patent US20100055163A1",
  "about": "“FORMULATION OF NATURAL T[…] […] FROM THE GENUS OLEA IN LIPOSOMES” (UNIVERSIDAD DE GRANADA, priority 2006, published 2010)",
  "origin": "cited, not measured here",
  "key": {"[1]": {"system": "parasites of the genus Cryptosporidium", "set-up": "dose or concentration left out as unconfirmed", "conditions": "MDCK cell lines"}, "[2]": {"biological_target": "HIV-1 protease (Human immunodeficiency virus type 1 group M subtype B, UniProt P04585)"}, "[3]": {"system": "acquired immunodeficiency virus", "conditions": "acts intracellularly"}, "[4]": {"system": "membrane hepatocyte lipid peroxidation (LPO)", "conditions": "rats"}, "[5]": {"system": "rainbow trout", "conditions": "added to feed"}},
  "data": [
    {"smiles": "CC1(C)CC[C@]2(C(=O)O)CC[C@]3(C)C(=CC[C@@H]4[C@@]5(C)C[C@@H](O)[C@H](O)C(C)(C)[C@@H]5CC[C@]43C)[C@@H]2C1", "note": "[maslinic acid, 2-alpha, 3-beta-dihydroxy-28-carboxy-oleanene]", "values": [
      {"measurement": "infection inhibition percentage", "setting": "[1]", "value": 92.3, "unit": "%"},
      {"measurement": "inhibiting activity in vitro of HIV-1 protease", "setting": "[2]", "value": "powerful inhibiting activity"},
      {"measurement": "exit of the virus from the infected cell towards the medium", "setting": "[3]", "value": "considerably inhibits"},
      {"measurement": "lipoperoxide levels and membrane hepatocyte susceptibility to lipid peroxidation (LPO)", "setting": "[4]", "value": "reduces lipoperoxide levels and membrane hepatocyte susceptibility to lipid peroxidation (LPO)"},
      {"measurement": "hepatic organ and function", "setting": "[5]", "value": "significant improvement of the hepatic organ and function"}
    ]}
  ]
}
